# From patent US20240264159A1 (priority 2021, published 2024)
# Molecular target: Spike SARS-CoV-2 foreign nanoparticles / coated host ACE2 nanoparticles (Severe acute respiratory syndrome coronavirus 2, UniProt P0DTC2, D614G)
# Type: biochemical
smiles,measurement,value
C[C@@H]1O[C@@H](O[C@H]2C[C@@H](O)[C@]3(CO)[C@H]4[C@H](O)C[C@]5(C)[C@@H](C6=CC(=O)OC6)CC[C@]5(O)[C@@H]4CC[C@]3(O)C2)[C@H](O)[C@H](O)[C@H]1O [ouabain],"neutralization/blocking of fusion, coated host ACE2 nanoparticles",Neutralization was further blocked
